# Assay results published in patent US12319672B2, “Alpha-D-galactopyranoside derivatives” (Idorsia Pharmaceuticals Ltd, priority 2019, dated 2025).
# Key:
# human Gal-1 (hGal-1) = assay: Competitive binding assay: binding of biotinylated hGal-1 to microplate-adsorbed asialofetuin (ASF); details: Activities on hGal-1; mean values of several measurements
# How it was run: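 Biotin-hGal-3/hGal-1 300-1000 ng/mL + cpd (DMSO dilutions) on ASF-coated plate, 3 h 4° C; wash; SA-HRP 80 ng/mL 1 h 4° C; wash; ABTS. IC50 = mean of several runs. hGal-1 preferably Cys→Ser (all six) mutant.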
# human Gal-3 (hGal-3) = human Gal-3 (hGal-3) (Homo sapiens (Human), UniProt P17931); assay: Competitive binding assay: binding of biotinylated hGal-3 to microplate-adsorbed asialofetuin (ASF); details: Activity on hGal-3; mean values of several measurements
# human Gal-3 (hGal-3), sequence (P17931 whole entry): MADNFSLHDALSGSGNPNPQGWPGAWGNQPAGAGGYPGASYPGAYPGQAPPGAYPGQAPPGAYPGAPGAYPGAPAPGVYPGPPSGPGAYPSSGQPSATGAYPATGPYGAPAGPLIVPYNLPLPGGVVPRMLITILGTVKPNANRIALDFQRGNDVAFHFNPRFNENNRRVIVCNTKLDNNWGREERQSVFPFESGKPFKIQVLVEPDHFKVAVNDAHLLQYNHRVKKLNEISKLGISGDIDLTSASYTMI
# How it was run: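 Biotinylated hGal-3 (300-1000 ng/mL) bound to ASF-coated wells with serially diluted compound, 3 h at 4° C. After washing, bound protein was detected with streptavidin-peroxidase (80 ng/mL, 1 h, 4° C) and ABTS substrate; IC50 values are means of several measurements.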
# human Gal-1 (hGal-1), sequence (P09382 2-135 limits assumed): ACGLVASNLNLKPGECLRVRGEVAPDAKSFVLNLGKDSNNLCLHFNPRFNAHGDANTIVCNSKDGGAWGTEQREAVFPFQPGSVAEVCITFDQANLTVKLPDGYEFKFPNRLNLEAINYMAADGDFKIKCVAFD
SMILES,IC50 (human Gal-1 (hGal-1)) [nM],IC50 (human Gal-3 (hGal-3)) [nM]
CC(C)(C)OC(=O)N1CCC(c2cc(C[C@H]3O[C@H](CO)[C@H](O)[C@H](n4cc(-c5cc(F)c(F)c(F)c5)nn4)[C@H]3O)no2)CC1 [Ex 1.40],740,43
CC(C)(C)OC(=O)N1CCC(C2CC(C[C@H]3O[C@H](CO)[C@H](O)[C@H](n4cc(-c5cc(F)c(F)c(F)c5)nn4)[C@H]3O)=NO2)CC1 (stereo partly shown) [Ex 1.41],6290,450
CC(C)(O)CC1CC(C[C@H]2O[C@H](CO)[C@H](O)[C@H](n3cc(-c4cc(F)c(F)c(F)c4)nn3)[C@H]2O)=NO1 (stereo partly shown) [Ex 1.42],3610,1060
OCc1cc(C[C@H]2O[C@H](CO)[C@H](O)[C@H](n3cc(-c4cc(F)c(F)c(F)c4)nn3)[C@H]2O)no1 [Ex 1.43],15800,1900
CC(=O)O[C@@H]1[C@@H](n2cc(-c3cc(F)c(F)c(F)c3)nn2)[C@@H](O)[C@@H](CO)O[C@@H]1CC1CC(C2CCN(C(=O)OC(C)(C)C)CC2)=NO1 (stereo partly shown) [Ex 1.44],1710,65
CC(C)(C)OC(=O)N1CCC(C2=NOC(C[C@H]3O[C@H](CO)[C@H](O)[C@H](n4cc(-c5cc(F)c(F)c(F)c5)nn4)[C@H]3O)C2)CC1 (stereo partly shown) [Ex 1.45],1020,110
CO[C@@H]1[C@@H](n2cc(-c3cc(F)c(F)c(F)c3)nn2)[C@@H](O)[C@@H](CO)O[C@@H]1CC1CC(C2CCN(C(=O)OC(C)(C)C)CC2)=NO1 (stereo partly shown) [Ex 1.46],1000,290
CO[C@@H]1[C@@H](n2cc(-c3cc(F)c(F)c(F)c3)nn2)[C@@H](O)[C@@H](CO)O[C@@H]1C[C@H]1CC(C2CCN(C(=O)OC(C)(C)C)CC2)=NO1 [Ex 1.47],6540,660
CO[C@@H]1[C@@H](n2cc(-c3cc(F)c(F)c(F)c3)nn2)[C@@H](O)[C@@H](CO)O[C@@H]1C[C@@H]1CC(C2CCN(C(=O)OC(C)(C)C)CC2)=NO1 [Ex 1.48],560,89
CC(=O)O[C@@H]1[C@@H](n2cc(-c3cc(F)c(F)c(F)c3)nn2)[C@@H](O)[C@@H](CO)O[C@@H]1Cc1cc(C2CCN(C(=O)OC(C)(C)C)CC2)on1 [Ex 1.49],2450,78
CO[C@@H]1[C@@H](n2cc(-c3cc(F)c(F)c(F)c3)nn2)[C@@H](O)[C@@H](CO)O[C@@H]1Cc1cc(C2CCN(C(=O)OC(C)(C)C)CC2)on1 [Ex 1.50],570,63
CC(C)(C)c1cc(C[C@H]2O[C@H](CO)[C@H](O)[C@H](n3cc(-c4cc(F)c(F)c(F)c4)nn3)[C@H]2O)no1 [Ex 1.51],2500,150
OC[C@H]1O[C@H](Cc2cc(C3CC3)on2)[C@H](O)[C@@H](n2cc(-c3cc(F)c(F)c(F)c3)nn2)[C@H]1O [Ex 1.52],7980,500
CC(C)(C)OC(=O)N1CC(c2cc(C[C@H]3O[C@H](CO)[C@H](O)[C@H](n4cc(-c5cc(F)c(F)c(F)c5)nn4)[C@H]3O)no2)C1 [Ex 1.53],2870,350
CC(C)(C)OC(=O)N1CCCC(c2cc(C[C@H]3O[C@H](CO)[C@H](O)[C@H](n4cc(-c5cc(F)c(F)c(F)c5)nn4)[C@H]3O)no2)C1 (stereo partly shown) [Ex 1.54],6480,290
CC(C)(C)OC(=O)N1CCC(c2cc(C[C@H]3O[C@H](CO)[C@H](O)[C@H](n4cc(-c5cc(F)c(F)c(F)c5)nn4)[C@H]3O)no2)C1 (stereo partly shown) [Ex 1.55],41900,660
OC[C@H]1O[C@H](Cc2cc(C3CCCCC3)on2)[C@H](O)[C@@H](n2cc(-c3cc(F)c(F)c(F)c3)nn2)[C@H]1O [Ex 1.56],15200,340
OC[C@H]1O[C@H](Cc2cc(C3CCCC3)on2)[C@H](O)[C@@H](n2cc(-c3cc(F)c(F)c(F)c3)nn2)[C@H]1O [Ex 1.57],12500,400
OC[C@H]1O[C@H](Cc2cc(C3(O)CCCC3)on2)[C@H](O)[C@@H](n2cc(-c3cc(F)c(F)c(F)c3)nn2)[C@H]1O [Ex 1.58],13600,490
OC[C@H]1O[C@H](Cc2cc(C3(O)COC3)on2)[C@H](O)[C@@H](n2cc(-c3cc(F)c(F)c(F)c3)nn2)[C@H]1O [Ex 1.59],6310,400
OC[C@H]1O[C@H](Cc2cc(C3CCOCC3)on2)[C@H](O)[C@@H](n2cc(-c3cc(F)c(F)c(F)c3)nn2)[C@H]1O [Ex 1.60],6970,290

SMILES,IC50 (human Gal-1 (hGal-1)) [nM],IC50 (human Gal-3 (hGal-3)) [nM]
CC(C)(C)OC(=O)N1CCC(O)(c2cc(C[C@H]3O[C@H](CO)[C@H](O)[C@H](n4cc(-c5cc(F)c(F)c(F)c5)nn4)[C@H]3O)no2)CC1 [Ex 1.61],620,36
CO[C@@H]1[C@@H](n2cc(-c3cc(F)c(F)c(F)c3)nn2)[C@@H](O)[C@@H](CO)O[C@@H]1Cc1cc(C2CCN(C(=O)OC(C)(C)C)CC2)no1 [Ex 1.62],450,76
CO[C@@H]1[C@@H](n2cc(-c3cc(F)c(F)c(F)c3)nn2)[C@@H](O)[C@@H](CO)O[C@@H]1Cc1cc(C(C)(C)C)on1 [Ex 1.63],2540,340
CO[C@@H]1[C@@H](n2cc(-c3cc(F)c(F)c(F)c3)nn2)[C@@H](O)[C@@H](CO)O[C@@H]1Cc1cc(C2CCOCC2)on1 [Ex 1.64],8510,270
CO[C@@H]1[C@@H](n2cc(-c3cc(F)c(F)c(F)c3)nn2)[C@@H](O)[C@@H](CO)O[C@@H]1Cc1cc(C2CCCCC2)on1 [Ex 1.65],14100,560
CO[C@@H]1[C@@H](n2cc(-c3cc(F)c(F)c(F)c3)nn2)[C@@H](O)[C@@H](CO)O[C@@H]1CC1=NOC(C(C)(C)C)C1 (stereo partly shown) [Ex 1.66],3760,1080
CO[C@@H]1[C@@H](n2cc(-c3cc(F)c(F)c(F)c3)nn2)[C@@H](O)[C@@H](CO)O[C@@H]1CC1=NOC(C2CCN(C(=O)OC(C)(C)C)CC2)C1 (stereo partly shown) [Ex 1.67],3080,430
CO[C@@H]1[C@@H](n2cc(-c3cc(F)c(F)c(F)c3)nn2)[C@@H](O)[C@@H](CO)O[C@@H]1Cc1cc(C2(O)COC2)on1 [Ex 1.69],6730,450
CO[C@@H]1[C@@H](n2cc(-c3cc(F)c(F)c(F)c3)nn2)[C@@H](O)[C@@H](CO)O[C@@H]1Cc1cc(C2CCN(C(=O)OC(C)(C)C)C2)on1 (stereo partly shown) [Ex 1.70],12600,1980
CO[C@@H]1[C@@H](n2cc(-c3cc(F)c(F)c(F)c3)nn2)[C@@H](O)[C@@H](CO)O[C@@H]1Cc1cc(C2CCCC2)on1 [Ex 1.71],5260,230
CO[C@@H]1[C@@H](n2cc(-c3cc(F)c(F)c(F)c3)nn2)[C@@H](O)[C@@H](CO)O[C@@H]1Cc1cc(C2(O)CCCC2)on1 [Ex 1.72],5110,360
CO[C@@H]1[C@@H](n2cc(-c3cc(F)c(F)c(F)c3)nn2)[C@@H](O)[C@@H](CO)O[C@@H]1Cc1cc(C2(O)CCCCC2)on1 [Ex 1.73],3120,190
CO[C@@H]1[C@@H](n2cc(-c3cc(F)c(F)c(F)c3)nn2)[C@@H](O)[C@@H](CO)O[C@@H]1Cc1cc(C2CCC2)on1 [Ex 1.74],3160,180
CO[C@@H]1[C@@H](n2cc(-c3cc(F)c(F)c(F)c3)nn2)[C@@H](O)[C@@H](CO)O[C@@H]1Cc1cc(C2(O)CCOCC2)on1 [Ex 1.75],3550,400
CO[C@@H]1[C@@H](n2cc(-c3cc(F)c(F)c(F)c3)nn2)[C@@H](O)[C@@H](CO)O[C@@H]1Cc1cc(C2(O)CCCN(C(=O)OC(C)(C)C)CC2)on1 (stereo partly shown) [Ex 1.76],13300,4620
OC[C@H]1O[C@H](Cc2cc(C3CCC4(CC3)OCCO4)on2)[C@H](O)[C@@H](n2cc(-c3cc(F)c(F)c(F)c3)nn2)[C@H]1O [Ex 1.77],6820,710
CCOC(=O)C1CCC(O)(c2cc(C[C@H]3O[C@H](CO)[C@H](O)[C@H](n4cc(-c5cc(F)c(F)c(F)c5)nn4)[C@H]3O)no2)CC1 (stereo partly shown) [Ex 1.78],9640,1000
CO[C@@H]1[C@@H](n2cc(-c3cc(F)c(F)c(F)c3)nn2)[C@@H](O)[C@@H](CO)O[C@@H]1Cc1cc(C2CCC(F)(F)CC2)on1 [Ex 1.79],4240,270
CC(C)(C)OC(=O)NC1CCC(c2cc(C[C@H]3O[C@H](CO)[C@H](O)[C@H](n4cc(-c5cc(F)c(F)c(F)c5)nn4)[C@H]3O)no2)CC1 (stereo partly shown) [Ex 1.80],43800,110
CC(C)(C)OC(=O)NC1CCC(c2cc(C[C@H]3O[C@H](CO)[C@H](O)[C@H](n4cc(-c5cc(F)c(F)c(F)c5)nn4)[C@H]3O)no2)CC1 (stereo partly shown) [Ex 1.81],14500,200
